Test results published in article PMC5612753, “New lipases by mining of Pleurotus ostreatus genome” (PLoS ONE, 2017).

Assays:
[1] = test system: T1, PleoLip369; assay: spectrophotometric p-nitrophenol release, […] nm; non-linear regression; type: biochemical, Pleurotus ostreatus; details: pH 8; substrate 0.001-1 mM
T1 construct: signal peptide removed, codon-optimised synthetic gene behind alpha-factor signal, secreted from Pichia pastoris BG-10, purified by CM Sepharose; catalytic Ser266, Asp394, His512, pentapeptide GESAG

[2] = test system: T2, PleoLip241; assay: as above; type: biochemical, Pleurotus ostreatus; details: pH 8; substrate 0.001-1 mM
T2 construct: signal peptide removed, codon-optimised synthetic gene behind alpha-factor signal, secreted from Pichia pastoris BG-10, purified by CM Sepharose; catalytic Ser273, Asp403, His520, pentapeptide GQSAG

| Structure (SMILES) | Km [1] [µM] | Km [2] [µM] |
| --- | --- | --- |
| CCCCCCCC(=O)Oc1ccc([N+](=O)[O-])cc1 [pNP-C8, p-nitrophenyl octanoate] | 510 ± 60 | – |
| CCCCCCCCCC(=O)Oc1ccc([N+](=O)[O-])cc1 [pNP-C10, p-nitrophenyl decanoate] | 130 ± 20 | 30 ± 5 |
| CCCCCCCCCCCC(=O)Oc1ccc([N+](=O)[O-])cc1 [pNP-C12, p-nitrophenyl dodecanoate] | 652 ± 75 | 150 ± 6 |
| CCCCCCCCCCCCCC(=O)Oc1ccc([N+](=O)[O-])cc1 [pNP-C14, p-nitrophenyl myristate] | – | 85 ± 4 |
| CCCCCCCCCCCCCCCC(=O)Oc1ccc([N+](=O)[O-])cc1 [pNP-C16, p-nitrophenyl palmitate] | – | 350 ± 38 |
